Experiment [1] concerns the target T1, KRAS G12C (Homo sapiens, UniProt P01116, G12C). Briefly: KRAS GDP FI assay. It is filed as biochemical. The conditions noted are these: kinetic reading Ex580/Em620 for 120 min. An excerpt: Assay 2: KRAS GDP FI Assay
1. Prepare compound dilution plate.
2. Transfer Inhibitor/DMSO to assay plate by Echo.
3. Prepare 1× assay buffer.
4. Prepare KRAS G12C mix & SOS1 mix & GTP mix & detection reagent mix.
5. Add KRAS G12C mix, SOS1 mix, GTP mix.
6. Add detection reagent mix to assay plate.

For a further experiment, the system named is NCI-H358. Briefly: Tumor cell anti-proliferation assay (CTG assay), NCI-H358. It is filed as cell-based. As to conditions: read-out: IC50 NCI-H358. The procedure:
(§1) Assay 3: Tumor Cell Anti-Proliferation Assay (CTG Assay)
(§2) Tested tumor cell lines (MIA PaCa-2, NCI-H358, and A549) were seeded to the 96-well plate for overnight, then cells were treated with the test compound at 9 serially diluted concentrations in triplicate. After 3-days incubation with the test compound, the CTG assay was performed to evaluate the IC50. The 3 cell lines were tested in the same manner. Cisplatin were used as the positive control.
(§3) Day −1: Cell Plating for Cell Lines
(§4) 1. Adjust the cell concentration to the appropriated number with the medium, and for each well of a 96-well plate, add 90 μl cell suspensions (Cell concentration will be adjusted according to the data base or density optimization assay). 2. Incubate the plates for overnight in humidified incubator at […] with 5% CO2.
(§5) Day 0: T0 Plate Reading and Compound Treatment
(§6) 3. Add 10 μL culture medium to each well of plate A for T0 reading.
(§7) 4. Equilibrate the plate and its content at RT for approximately 30 min.
(§8) 5. Add 50 μL CellTiter-Glo® Reagent to each well for T0 reading.
(§9) 6. Mix contents for 2 minutes on an orbital shaker to facilitate cell lysis.
(§10) 7. Allow the plate to incubate at room temperature for 10 minutes to stabilize the luminescent signal. Note: Uneven luminescent signal within standard plates can be caused by temperature gradients, uneven seeding of cells or edge effects in multiwall plates.
(§11) 8. Place a black BackSeal sticker to the bottom of each plate.
(§12) 9. Record luminescence using an Envision Multi Label Reader.
(§13) 10. Dilute the test compound and the positive control (Cisplatin). Add 10 μL of 10× test compound working solutions into the corresponding wells. Incubate the test plates in the humidified incubator at 37° C. with 5% Co2.
(§14) Day 3: Plate Reading for 3-Day Assay
(§15) 11. Monitor under the microscope to make sure that the cells in control wells are healthy.
(§16) 12. After three days incubation, add 50 μL CellTiter-Glo® Reagent to each well.
(§17) 13. Mix contents for 2 minutes on an orbital shaker to facilitate cell lysis.
(§18) 14. Allow the plate to incubate at room temperature for 10 minutes to stabilize the luminescent signal.
(§19) 15. Note: Uneven luminescent signal within standard plates can be caused by temperature gradients, uneven seeding of cells or edge effects in multiwall plates.
(§20) 16. Place a black BackSeal sticker to the bottom of each plate.
(§21) 17. Record luminescence using an Envision Multi Label Reader.
(§22) In order to calculate IC50, a dose-response curve was fitted using nonlinear regression model with a sigmoidal dose response. The formula of the surviving rate is shown below, and the IC50 was automatically produced by GraphPad Prism 5.0.
(§23) The surviving rate […]=(LumTest compound−LumMedium control)/(LumNone treated-LumMedium control)×100%.
(§24) LumNone treated-LumMedium control is set as 100% o and LumMedium control is set as […]. T0 value will be presented as percentage of LumNone treated.

The test system of the next experiment is MIA PaCa-2. Briefly: Tumor cell anti-proliferation assay (CTG assay), MIA PaCa-2. The conditions noted are these: read-out: IC50 MIA PaCa-2. In kind it is cell-based. The protocol: as §1, §2, §3, §4, §5, §6, §7, §8, §9, §10, §11, §12, §13, §14, §15, §16, §17, §18, §19, §20, §21, §22, §23, §24
The test system of a further experiment is A549. In words: Tumor cell anti-proliferation assay (CTG assay), A549. In kind it is cell-based. As to conditions: A549, 3-days incubation. The protocol:
as §1, §2, §3, §4, §5, §6, §7, §8, §9, §10, §11, §12, §13, §14, §15, §16, §17, §18, §19, §20, §21, §22, §23, §24

The target of experiment [2] is T1, KRAS G12C. In words: KRAS G12C nucleotide exchange assay (SOS1-mediated, mant-GDP fluorescence). In kind it is biochemical. Also on record: KRas(1-169) G12C protein. The conditions noted are these: 15 min pre-incubation. The procedure:
Assay 1: KRAS G12C Nucleotide Exchange Assay
1×Loading buffer: 20 mM HEPES, pH 7.5, 50 mM NaCl, 0.5 mM MgCl2, 1 mM DTT, 5 mM EDTA
1×Equilibration buffer: 20 mM HEPES, pH 7.5, 150 mM NaCl, 1 mM MgCl2, 1 mM DTT
1×Assay buffer: 20 mM HEPES, pH 7.5, 150 mM NaCl, 1 mM MgCl2, 0.01% Tween-20, 1 mM DTT
2. Load Mant GDP to KRAS G12C:
a. A mixed solution of 100 µL mant GDP and KRAS G12C was prepared with 1×loading buffer: 60 um KRAS G12C, 600 um […], incubated at room temperature for 60 minutes, and the reaction was carried out in dark conditions.
b. Add 1 uL 1 m MgCl2 (final concentration 10 mm) to stop the reaction, mix the solution upside down in the centrifuge tube, centrifugate for 3-5 seconds, and incubate at room temperature for 30 minutes.
c. At the same time of incubation for 30 minutes, balance nap-5 column with 10 ml ix equipment buffer until no liquid drops.
d. Drop the mixed solution of 100 uL mant GDP and KRAS G12C into the center of nap-5 column. After the sample completely enters nap-5 column, add 400 µL 1× equipment buffer until no liquid drops.
e. Add 500 ul 1× equipment buffer for elution and collect eluant.
f. Determination of KRAS G12C mant GDP with Bradford protein quantitative Kit.
3. Nucleotide Exchange Experiment:
a. Transfer 50 NL DMSO/compound to 384 well plate with echo550.
b. 10 uL enzyme mix was added into 384 pore plate and incubated with DMSO/compound for 15 min.
c. Initial reaction with 10 µL Sos1/GTP mix.
d. Immediately after reaction, read ex360/em440 fluorescence value in kinetic mode with Nivo.
a. Use Graphpad software to process data and draw pictures.
b. K value is obtained in Graphpad software by fitting One phase experimental deck model.
c. Z′=1-3*(SdKmax+SdKmin)/(AveKmax−AveKmin)
d. In % is calculated by the following formula:
Inh%=(Kmax−Ksample)/(Kmax−Kmin)*100

The mark [3] stands for this setting: NCI-H358, 3-days incubation, CTG.
Where [4] appears, read: Homo sapiens, MIA PaCa-2, 72 h, MIA PaCa-2, 3-days incubation, CTG.
Where [5] appears, read: MIA PaCa-2, 3-days incubation, CTG.

pIC50: −log10 of the molar value. Read-outs that look alike come from different tables or passages of the source. A value given as a limit tells only on which side of the number the result lay.

In patent publication US20230212170A1, “INHIBITORS OF KRAS G12C PROTEIN AND USES THEREOF” (SHANGHAI ANTENGENE CORPORATION LIMITED, priority 2020, published 2023) one finds IC50 data, which are given here for 17 molecules.

A word on the pIC50: it is −log10 of the IC50, conventionally taken in molar units.

At KRAS G12C [1], `C=CC(=O)N1CCN(c2nc(OC[C@@H]3CCCN3C)nc3c(=O)n(-c4cccc5cccc(F)c45)c(C(F)(F)F)nc23)C[C@@H]1CC#N` [Example 37, 2-((S)-1-acryloyl-4-(7-(8-fluoronaphthalen-1-yl)-2-(((S)-1-methylpyrrolidin-2-yl)methoxy)-8-oxo-6-(trifluoromethyl)-7,8-dihydropyrimido[5,4-d]pyrimidin-4-yl)piperazin-2-yl) acetonitrile] showed a pIC50 of 6.75.

With `C=CC(=O)N1C[C@H](C)N(c2nc(OC[C@@H]3CCCN3C)nc3c(=O)n(-c4cccc5cccc(Cl)c45)c(C(F)(F)F)nc23)[C@@H](C)C1` (single isomer, unassigned) [Example 29-a], the pIC50 at KRAS G12C [1] is 7.05; in the experiment with NCI-H358 (setting [3]), 6.83. Consider `C=CC(=O)N1CCN(c2nc(OC[C@@H]3CCCN3C)nc3c(=O)n(-c4cccc5cccc(Cl)c45)c(C(F)(F)F)nc23)[C@@H](C)C1` [Compound 24, 8-((S)-4-acryloyl-2-methylpiperazin-1-yl)-3-(8-chloronaphthalen-1-yl)-6-(((S)-1-methylpyrrolidin-2-yl)methoxy)-2-(trifluoromethyl)pyrimido[5,4-d] pyrimidin-4(3H)-one], for which the negative-log IC50 (pIC50) at KRAS G12C [1] is 6.88; with MIA PaCa-2 (setting [4]), 6.32.

Regarding `C=CC(=O)N1C[C@H](C)N(c2nc(OC[C@@H]3CCCN3C)nc3c(=O)n(-c4cn(C)c5ccccc45)c(C(F)(F)F)nc23)[C@@H](C)C1` [Example 43], the pIC50 with MIA PaCa-2 (Homo sapiens, MIA PaCa-2, 72 h) is 6.12; with NCI-H358 (Homo sapiens, NCI-H358, 72 h), 6.59. As for `C=CC(=O)N1CCN(c2nc(OC[C@@H]3CCCN3C)nc3c(=O)n(-c4cccc5cccc(Cl)c45)c(C(F)(F)F)nc23)C[C@@H]1CC#N` [Example 31, 2-((S)-1-acryloyl-4-(7-(8-chloronaphthalen-1-yl)-2-(((S)-1-methylpyrrolidin-2-yl)methoxy)-8-oxo-6-(trifluoromethyl)-7,8-dihydropyrimido[5,4-d]pyrimidin-4-yl)piperazin-2-yl)acetonitrile], the pIC50 against KRAS G12C [1] was 6.94; with MIA PaCa-2 (setting [4]), 6.91; in the experiment on A549 (Homo sapiens, 72 h) it was less than 5.00; at KRAS G12C [2], 6.35.

For `C=CC(=O)N1CCN(c2nc(OC[C@@H]3CCCN3C)nc3c(=O)n(-c4cccc5cccc(Cl)c45)c(C(F)(F)F)nc23)[C@@H](C)C1` (single isomer, unassigned) [Compound 24-b], the pIC50 in the experiment on NCI-H358 (setting [3]) is 5.84.

Consider `C=CC(=O)N1C[C@H](C)N(c2nc(OC[C@@H]3CCCN3C)nc3c(=O)n(-c4cccc5cccc(F)c45)c(C(F)(F)F)nc23)[C@@H](C)C1` (single isomer, unassigned) [Example 34-b], for which the pIC50 was 6.17 in the experiment on MIA PaCa-2 (setting [5]), 7.09 with NCI-H358 (setting [3]) and less than 5.00 in the experiment with A549. Regarding `C=CC(=O)N1CCN(c2nc(OC[C@@H]3CCCN3C)nc3c2CCCC(c2c(C)ccc4[nH]ncc24)C3)C[C@@H]1CC#N` (stereo partly drawn) [Example 30, 2-((2S)-1-acryloyl-4-(8-(5-methyl-1H-indazol-4-yl)-2-(((S)-1-methylpyrrolidin-2-yl)methoxy)-6,7,8,9-tetrahydro-5H-cyclohepta[d]pyrimidin-4-yl)piperazin-2-yl)acetonitrile], the pIC50 was 6.91 on KRAS G12C [1] and 7.14 in the experiment with MIA PaCa-2 (setting [4]). As for `C=CC(=O)N1CCN(c2nc(OC[C@@H]3CCCN3C)nc3c(=O)n(-c4cccc5cccc(Cl)c45)c(CC)nc23)[C@@H](C)C1` (single isomer, unassigned) [Compound 27-b], the values for the pIC50 against KRAS G12C [1] and with MIA PaCa-2 (setting [5]) were 6.05 and 5.57, respectively. `C=CC(=O)N1C[C@H](C)N(c2nc(OC[C@@H]3CCCN3C)nc3c(=O)n(-c4cccc5cccc(Cl)c45)c(C)nc23)[C@@H](C)C1` [Compound 28, 8-((2S,6S)-4-acryloyl-2,6-dimethylpiperazin-1-yl)-3-(8-chloronaphthalen-1-yl)-2-methyl-6-(((S)-1-methylpyrrolidin-2-yl)methoxy)pyrimido[5,4-d]pyrimidin-4(3H)-one]: the pIC50 was 6.72 against KRAS G12C [1] and 5.82 in the experiment on MIA PaCa-2 (setting [4]). At KRAS G12C [1], `C=CC(=O)N1CCN(c2nc(OC[C@@H]3C[C@@H](F)CN3C)nc3c(=O)n(-c4cccc5cccc(Cl)c45)c(C(F)(F)F)nc23)[C@@H](C)C1` (single isomer, unassigned) [Example 36-a] gave a pIC50 of 6.81.

As to `C=CC(=O)N1CCN(c2nc(OC[C@@H]3CCCN3C)nc3c(=O)n(-c4cccc5cccc(Cl)c45)c(C(F)(F)F)nc23)C[C@@H]1CC#N` (single isomer, unassigned) [Example 32-b], the results for the pIC50 on KRAS G12C [1] and in the experiment with MIA PaCa-2 (setting [5]) were 7.08 and 6.73, respectively. Turning to “2-((S)-1-acryloyl-4-(7-(8-chloronaphthalen-1-yl)-2-(((2S,4R)-4-fluoro-1-methylpyrrolidin-2-yl) [Compound 25-b]”, the pIC50 was 7.43 at KRAS G12C [1] and 5.95 with MIA PaCa-2 (setting [5]).

Consider `C=CC(=O)N1CCN(c2nc(OC[C@@H]3CCCN3C)nc3c(=O)n(-c4cccc5cccc(C)c45)c(-c4ccccc4)nc23)C[C@@H]1CC#N` [Example 39, 2-((S)-1-acryloyl-4-(7-(8-methylnaphthalen-1-yl)-2-(((S)-1-methylpyrrolidin-2-yl)methoxy)-8-oxo-6-phenyl-7,8-dihydropyrimido[5,4-d]pyrimidin-4-yl)piperazin-2-yl)acetonitrile], for which, on KRAS G12C [1], the pIC50 is 6.44.

Regarding `C=CC(=O)N1CCN(c2nc(OC[C@@H]3CCCN3C)nc3c(=O)n(-c4cccc5cccc(Cl)c45)c(C)nc23)[C@@H](C)C1` (single isomer, unassigned) [Compound 26-b], the pIC50 on KRAS G12C [1] is 5.82; in the experiment on MIA PaCa-2 (setting [5]), 5.54. Take `C=CC(=O)N1CCN(c2nc(OC[C@@H]3CCCN3C)nc3c(=O)n(-c4cccc5cccc(Cl)c45)c(C(F)(F)F)nc23)[C@@H](C)C1` (single isomer, unassigned) [Compound 24-a]: in the experiment with NCI-H358 (setting [3]), the pIC50 is 6.39. On to `C=CC(=O)N1CCN(c2nc(OC[C@@H]3CCCN3C)nc3c(=O)n(-c4ccccc4F)c(C(F)(F)F)nc23)[C@@H](C)C1` (single isomer, unassigned) [Example 40-b], for which the negative-log IC50 (pIC50) on KRAS G12C [1] is 6.39.
